From PMC10610016, “New Hybrid Compounds Incorporating Natural Products as Multifunctional Agents against Alzheimer’s Disease” (Pharmaceutics, 2023)
Several values for one entry are separate records, joined by “and”; a condition that tells them apart may be missing. Equal entries are not always repeated. Where two headings read alike, the source gives them in different places. Values belong to the molecule of their own block, whether it stands above or below them.

Tests used:
[1] = design: method as in PMID 31055242; details: literature value; cited from earlier work
[2] = design: method as in PMID 31055242; details: literature value; cited from earlier work; remark: listed apart in the source
[3] = DPPH radical scavenging assay; assay type: biochemical; details: for %AA (percentage of antioxidant activity), DPPH: compound 100 µM, DPPH 60 µM in MeOH, 1 h; for EC50 / TEAC (Trolox equivalent antioxidant capacity), DPPH: mean ± SEM of three independent experiments
Protocol: The DPPH assay was carried out in a 96-microwell plate according to a previously described protocol. In brief, DPPH solution (60 µM in MeOH) was added to studied compounds or MeOH as the control. The 96-microwell plate was incubated (in the dark, at r.t. for 1 h) and the absorbance values were read at 517 nm by a SPECTROstarNano (220–1000 nm) UV–Vis spectrophotometer, Ortenberg, Germany. During the first screening, all compounds were tested ad 100 µM, then for compounds 2a–c the EC50 (effective concentration), the concentration of substrate that causes a 50% reduction in the DPPH colour, was calculated.
All experiments were made in triplicate. The percentage of the antioxidant activity (%AA) of the compounds was determined according to Equation (1):%AA = ((AbsDPPH − Abssample)/AbsDPPH) × 100(1)
AbsDPPH is the absorbance of DPPH solution, and Abssample is the absorbance of DPPH solution containing the tested compound.
Each concentration was tested in triplicate and the EC50 value was reported as the mean ± the standard error of the mean (SEM) of three independent experiments.

[4] = UV–Vis metal binding study, Cu2+ (mole ratio method); assay type: physicochemical; details: for shift in UV spectrum in the presence of Cu2+ (first screening): ligand 20 μM, Cu2+ 80 µM, MeOH; for stoichiometry for the Cu2+–ligand complex (molar fraction analysis): ligand 20 µM, Cu2+ 0 to 80 µM
Protocol: (§1) The synthesized compounds were tested for their metal chelating effect through spectroscopic measurements. The UV–Vis absorbance of compounds was recorded in the absence and presence of metal ions using a UV–Vis spectrometer (a SPECTROstarNano (220–1000 nm), Ortenberg, Germany. The experiment was performed in 96-well plates and each experiment was made in triplicates. A fixed amount of investigated ligand (20 μM) solubilized in MeOH was mixed with increasing concentration of Cu^2+ (CuCl2), Fe^2+ (FeSO4) and Zn^2+ (ZnCl2) from 0 to 80 μM and incubated for 30 min at room temperature (r.t.). The absorbance change was monitored at wavelengths ranging from 220 to 700 nm. The stoichiometry of studied compounds for Cu^2+ and Fe^2+ complexes was determined by employing the mole ratio method.

Human Plasma TTR = molecular target: T1, Human Plasma TTR (Homo sapiens, UniProt P02766); test: ANS competitive binding (displacement) assay; details: TTR 8 µM, ANS 16 µM
T1 construct: purchased Merck Millipore, Molsheim, France; host or cells: human plasma
Protocol: The binding of ANS (8-anilino-1-naphthalenesulfonic acid), Sigma-Aldrich (St. Louis, MO, USA) and its displacement by the three selected compounds 2a–c were studied using Human Plasma TTR (Merck Millipore, Molsheim, France) according to the protocol previously described. Briefly, TTR (8 µM) was incubated with ANS (16 µM) at r.t. for 15 min in 96-well plates. Then, compounds 2a–c at concentrations of 100 µM were added. After 10 min, the fluorescent emission spectra (400–540 nm) were recorded exciting at 280 nm using Molecular Devices SpectraMax Gemini XPS plate reader, (San Jose, CA, USA). For compounds 2a, the IC50 was calculated and value was expressed as the mean ± SEM of the triplicate. All experiments were made in triplicate and, the fluorescence increases of ANS bound to TTR solution compared to its control without TTR, and TTR alone, in phosphate buffer, were used as a control.

[5] = UV–Vis metal binding study, Fe2+ (mole ratio method); assay type: physicochemical
Protocol: as §1

Aβ1-40 = molecular target: T2, Aβ1-40 (Homo sapiens, UniProt P05067); test: Thioflavin T (ThT) fluorescence assay of Aβ1-40 fibril formation; assay type: biochemical; details: for inhibition of Aβ1-40 fibril formation (ThT): Aβ1-40 10 µM
T2 construct: Aβ1-40 was obtained from Bachem (Bubendorf, Switzerland); purchased Bachem (Bubendorf, Switzerland)
Protocol: Aβ1-40 was obtained from Bachem (Bubendorf, Switzerland). To remove preformed aggregates, it was dissolved during 15–20 min at r.t. in 1% NH4OH to give a concentration of 2 mg/mL, followed by immediate lyophilisation. The Aβ1-40 peptide was then dissolved in an aqueous 1% ammonia solution to a concentration of 1 mM and then, just prior to use, was diluted to 0.2 mM with 10 mM Tris-HCl, 100 mM NaCl buffer (pH 7.4). Compounds (2a–c) were dissolved in DMSO (4.9 mM), while TTR in phosphate buffer 20 mM buffer (pH 7.4) at 1 mM concentration. ThT fluorescence was measured to evaluate the development of Aβ1-40 fibrils over time using a fluorescence plate reader (Vantastar, BMG lab-tech, Ortenberg, Germany) with standard 96-well black microliter plates. The ThT fluorescence intensity was recorded by using excitation/emission settings at 440−15 nm/480−15nm for 21 h and applying a double orbital shaking of 10 s before the first cycle. Experiments were triggered by adding Aβ1-40 achieving a final concentration of 10 μM into a mixture containing 40 μM ThT in 10 mM Tris-HCl, 100 mM NaCl buffer (pH 7.4) with and without the studied compounds (10 μM) at 25 °C, and with and without CuCl2 (10 µM). When TTR was assessed in the presence of compound 2a, the ratio between TTR and 2a was adjusted to 1:2 (TTR:2a) in order to let the compound interacting with both hydrophobic pockets. A time of 3 h of incubation was employed before adding the solution into the well. The F reduction is depicted as the intensity of experimental fluorescence plateau observed with the studied compound relative to the value obtained without the compound and is quantified as the following percentage: ((F Aβ1-40+compound − F Aβ1-40)/(F Aβ1-40)) × 100. The data of fluorescence intensity come from at least two independent experiments, where each condition has been performed in duplicate, in the case of the presence of TTR (10 µM), or triplicate, in the case of the absence of TTR (10 µM), respectively. The values are given as averaged percentage ± SEM.

ABTS assay = assay type: biochemical; details: for radical scavenger / antioxidant activity, ABTS: compound 100 µM; for EC50 / TEAC, ABTS: mean ± SEM of three independent experiments
Protocol: The ABTS assay was performed according to the methods reported in literature. Briefly, 7 mM of ABTS was mixed with 2.45 mM of K2S2O8 solution, ratio 1:1, in 10 mM phosphate buffer (pH 7.4). The mixture was incubated in a dark box at r.t. for 12 h, then the stock solution was diluted until the absorbance was 0.70 ± 0.02 at 734 nm.
In a 96-well plate, 190 µL ABTS working solution and 10 µL sample solution (compounds 2a–c, 3a–c at concentration of 100 μM) were mixed and the absorbance was measured (734 nm) using a SPECTROstarNano (220–1000 nm) UV–Vis spectrophotometer, Ortenberg, Germany. Then, for compounds 2a–c the EC50 was calculated and the values were expressed in TEAC equivalents. Each concentration was tested in triplicate and the EC50 was reported as the mean ± SEM of three independent experiments.

[6] = Colorimetric Fe2+ chelation with ferrozine; assay type: physicochemical; details: FeSO4, ferrozine
Protocol: (§2) Due to a non-measurable UV absorbance for compounds 4a and 5c, a different protocol using pyrocatechol violet (PV) was applied. The compounds (200 µM) incubated for 10 min with CuSO4 (200 µM), after 200 µM PV was added and the plate was incubated at 25 °C for 20 min. The absorption spectra were recorded. The same protocol was used for Fe^2+ (FeSO4) in presence of ferrozine.

[7] = Colorimetric Cu2+ chelation with pyrocatechol violet (PV); assay type: physicochemical; details: compound 200 µM, CuSO4 200 µM, PV 200 µM
Protocol: as §2

T2 sequence (P05067 672-711 limits assumed): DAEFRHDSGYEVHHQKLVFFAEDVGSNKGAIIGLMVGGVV

- melting point: 78 to 80 °C
SMILES: CCCC(CCC)C(=O)NOCc1ccc(C(F)(F)F)cc1 [Compound 4c, 2-propyl-N-((4-(trifluoromethyl)benzyl)oxy)pentanamide]

- EC50 [3]: 8.9 ± 0.2 µM
- shift in UV spectrum in the presence of Cu2+ (first screening) [4]: significant shift
- IC50 (Human Plasma TTR; mean ± SEM of triplicate): 31.9 µM
- displacement of ANS from TTR (Human Plasma TTR; compound 100 µM): 71%
- molar fraction of the 2a–Fe2+ complex ([5]; Fe2+ 0 to 30 µM, absorbance changes at 330 nm): 1
- change in UV spectrum when Fe2+ was added (first screening) ([5]; ligand 20 μM, Fe2+ 80 µM, MeOH): weak change
- effect on Aβ1-40 fibril formation (ThT) (Aβ1-40; TTR 10 µM pre-incubated with 2a 20 µM (1:2 TTR/2a), without Cu2+): slight positive effect
- inhibition of Aβ1-40 fibril formation (ThT) (Aβ1-40; without Cu2+, compound 10 µM (1:1 ratio)): discrete inhibitory activity
- EC50 (ABTS assay): 9.9 ± 0.2 µM
- melting point: 80 to 82 °C
SMILES: O=C(/C=C/c1ccc(O)c(O)c1)NOCc1ccccc1C(F)(F)F [Compound 2a, (E)-3-(3,4-dihydroxyphenyl)-N-((2-(trifluoromethyl)benzyl)oxy)acrylamide]
- %AA (percentage of antioxidant activity), DPPH [3]: 95%
- TEAC (Trolox equivalent antioxidant capacity), DPPH [3]: 12.4 ± 0.4 µM
- inhibition of Aβ1-40 fibril formation (ThT) (Aβ1-40; with Cu2+ 10 µM, compound 10 µM): completely inhibition of the fibril formation
- radical scavenger / antioxidant activity, ABTS (ABTS assay): 99.1%
- TEAC, ABTS (ABTS assay): 11.3 ± 0.1 µM

- stoichiometry for the Cu2+–ligand complex (molar fraction analysis) [4]: around 2
- shift in UV spectrum in the presence of Cu2+ (first screening) [4]: significant shift
- melting point: 165 to 167 °C
SMILES: O=C(/C=C/c1ccc(O)cc1O)NOCc1ccccc1C(F)(F)F [Compound 3a, (E)-3-(2,4-dihydroxyphenyl)-N-((2-(trifluoromethyl)benzyl)oxy)acrylamide]
- %AA (percentage of antioxidant activity), DPPH [3]: 59%
- radical scavenger / antioxidant activity, ABTS (ABTS assay): 68%

- melting point: 73 to 75 °C
SMILES: CCCC(CCC)C(=O)NOCc1ccccc1C(F)(F)F [Compound 4a, 2-propyl-N-((2-(trifluoromethyl)benzyl)oxy)pentanamide]
- interaction with Fe2+, colorimetric method with ferrozine [6]: No interaction
- interaction with Cu2+, colorimetric method with PV [7]: slight shift

- melting point: 176 to 178 °C
SMILES: O=C(/C=C/c1ccc(O)cc1O)NOCc1ccc(C(F)(F)F)cc1 [Compound 3c, (E)-3-(2,4-dihydroxyphenyl)-N-((4-(trifluoromethyl)benzyl)oxy)acrylamide]
- radical scavenger / antioxidant activity, ABTS (ABTS assay): 65%

- EC50 [3]: 6 ± 0.1 µM
- EC50 (ABTS assay): 22.9 ± 0.5 µM
- melting point: 188 to 190 °C
SMILES: O=C(/C=C/c1ccc(O)c(O)c1)NOCc1ccc(C(F)(F)F)cc1 [Compound 2c]
- %AA (percentage of antioxidant activity), DPPH [3]: 96% and 58%
- TEAC (Trolox equivalent antioxidant capacity), DPPH [3]: 10.4 ± 0.4 µM
- radical scavenger / antioxidant activity, ABTS (ABTS assay): 97.3%
- TEAC, ABTS (ABTS assay): 11.8 ± 0.02 µM

- melting point: 157 to 158 °C
SMILES: O=C(/C=C/c1ccc(O)cc1O)NOCc1cccc(C(F)(F)F)c1 [Compound 3b, (E)-3-(2,4-dihydroxyphenyl)-N-((3-(trifluoromethyl)benzyl)oxy)acrylamide]
- %AA (percentage of antioxidant activity), DPPH [3]: 60%
- radical scavenger / antioxidant activity, ABTS (ABTS assay): 67%

- melting point: 74 to 76 °C
SMILES: CCCC(CCC)C(=O)NOCc1cccc(C(F)(F)F)c1 [Compound 4b, 2-propyl-N-((3-(trifluoromethyl)benzyl)oxy)pentanamide]

Continued, molecule first:

SMILES: O=C(O)/C=C/c1ccc(O)c(O)c1 [caffeic acid]
- EC50 [1]: 10.9 µM
- EC50 [2]: 13.3 µM

SMILES: O=C(C=Cc1ccccc1)NOCc1cccc(C(F)(F)F)c1 [Compound 1b, N-((3-(trifluoromethyl)benzyl)oxy)cinnamamide]
- melting point: 91 to 93 °C

SMILES: O=C(CCCC[C@@H]1CCSS1)NOCc1ccccc1C(F)(F)F [Compound 5a, (R)-5-(1,2-dithiolan-3-yl)-N-((2-(trifluoromethyl)benzyl)oxy)pentanamide]
- interaction with Fe2+, colorimetric method with ferrozine [6]: No interaction
- interaction with Cu2+, colorimetric method with PV [7]: slight shift

SMILES: O=C(C=Cc1ccccc1)NOCc1ccc(C(F)(F)F)cc1 [Compound 1c, N-((4(trifluoromethyl)benzyl)oxy)cinnamamide]
- melting point: 148 to 150 °C

SMILES: O=C(C=Cc1ccccc1)NOCc1ccccc1C(F)(F)F [Compound 1a, N-((2-(trifluoromethyl)benzyl)oxy)cinnamamide]
- stoichiometry for the Cu2+–ligand complex (molar fraction analysis) [4]: 1.0
- shift in UV spectrum in the presence of Cu2+ (first screening) [4]: significant shift
- melting point: 91 to 93 °C
